Measured values: ChEMBL document CHEMBL1124312, “Perfluoro-N-[4-(1H-tetrazol-5-ylmethyl)phenyl]alkanamides. A new class of oral antidiabetic agents” (J Med Chem, 1989)
Where “and” joins values, the source holds several entries; their conditions need not be identical. Equal values may be shown once.

How the values were obtained:
Type in all cases: functional, organism-based
Mus musculus [1] = test: Activity of perorally administered compound at a dose of 20 mg/kg for 4 days against plasma glucose in obese mice; design: dose 20 mg/kg
Mus musculus [2] = test: Activity of perorally administered compound at a dose of 75 mg/kg for 4 days against plasma glucose in diabetic mice; design: dose 75 mg/kg
Mus musculus [3] = test: Activity of perorally administered compound at a dose of 75 mg/kg for 4 days against plasma glucose in obese mice; design: dose 75 mg/kg
Mus musculus [4] = test: Activity of perorally administered compound at a dose of 75 mg/kg for 4 days against plasma insulin in diabetic mice; design: dose 75 mg/kg
Mus musculus [5] = test: Activity of perorally administered compound at a dose of 20 mg/kg for 10 days against plasma glucose in diabetic mice; design: dose 20 mg/kg
Mus musculus [6] = test: Activity of perorally administered compound at a dose of 20 mg/kg for 10 days against plasma insulin in diabetic mice; design: dose 20 mg/kg
Mus musculus [7] = test: Activity of perorally administered compound at a dose of 20 mg/kg for 4 days against plasma insulin in obese mice; design: dose 20 mg/kg

Compound | Plasma glucose (Mus musculus [1]) | Plasma glucose (Mus musculus [2]) | Plasma glucose (Mus musculus [3]) | Plasma insulin (Mus musculus [4]) | Plasma glucose (Mus musculus [5]) | Plasma insulin (Mus musculus [6]) | Plasma insulin (Mus musculus [7])
O=C(Nc1ccc(Cc2nnn[nH]2)cc1)C(F)(F)C(F)(F)C(F)(F)C(F)(F)C(F)(F)C(F)(F)C(F)(F)C(F)F | 108 mg/dL | 124 mg/dL | 93 mg/dL | 34 µU/mL | – | – | –
O=C(Nc1ccc(Cc2nn[nH]n2)cc1)C(F)(F)C(F)(F)C(F)(F)C(F)(F)C(F)(F)C(F)(F)C(F)(F)F | 111 mg/dL and 119 mg/dL | 163 mg/dL | 87 mg/dL | 32 µU/mL | 256 mg/dL | 14 µU/mL | 140 µU/mL
O=C(Nc1ccc(Cc2nnn[nH]2)cc1)C(F)(F)C(F)(F)C(F)(F)C(F)(F)C(F)(F)C(F)(F)C(F)(F)C(F)(F)C(F)(F)F | 133 mg/dL | – | 144 mg/dL | – | – | – | –
CN(C(=O)C(F)(F)C(F)(F)C(F)(F)C(F)(F)C(F)(F)C(F)(F)C(F)(F)F)c1ccc(Cc2nnnn2C)cc1 | 119 mg/dL | – | – | – | – | – | 204 µU/mL
CC1(COc2ccc(CC3SC(=O)NC3=O)cc2)CCCCC1 (stereo not drawn) | 191 mg/dL | 348 mg/dL | 107 mg/dL | 25 µU/mL | 320 mg/dL | 20 µU/mL | –
O=C(Nc1ccc(Cc2nnn[nH]2)cc1)C(F)(F)C(F)(F)C(F)(F)C(F)(F)F | 207 mg/dL | – | 170 mg/dL | – | – | – | –
O=C(Nc1ccc(Cc2nnn[nH]2)cc1)C(F)(F)C(F)(F)C(F)(F)C(F)(F)C(F)(F)C(F)(F)C(F)(F)C(F)(F)F | 128 mg/dL | – | 106 mg/dL | – | – | – | –
O=C(Nc1ccc(Cc2nnn[nH]2)cc1)C(F)(F)C(F)(F)C(F)(F)C(F)(F)C(F)(F)C(F)(F)C(F)(F)C(F)(F)C(F)(F)C(F)F | 123 mg/dL | – | 118 mg/dL | – | – | – | –
O=C(Nc1ccc(Cc2nnn[nH]2)cc1)C(F)(F)F | 273 mg/dL | – | 138 mg/dL | – | – | – | –
O=C(Nc1ccc(Cc2nnn[nH]2)cc1)C(F)(F)C(F)(F)F | 198 mg/dL | – | 120 mg/dL | – | – | – | –
O=C(Nc1ccc(Cc2nnn[nH]2)cc1)C(F)(F)C(F)(F)C(F)(F)C(F)(F)C(F)(F)C(F)(F)F | 231 mg/dL | – | 162 mg/dL | – | – | – | –
O=C(Nc1ccc(Cc2nn[nH]n2)cc1)C(F)(F)C(F)(F)C(F)(F)F | 213 mg/dL | – | 100 mg/dL | – | 307 mg/dL | 19 µU/mL | –
CN(C(=O)C(F)(F)C(F)(F)C(F)(F)C(F)(F)C(F)(F)C(F)(F)C(F)(F)F)c1ccc(Cc2nnn(C)n2)cc1 | 128 mg/dL | – | – | – | – | – | 205 µU/mL
O=C(Nc1ccc(Cc2nnnn2Cc2ccccc2)cc1)C(F)(F)C(F)(F)C(F)(F)C(F)(F)C(F)(F)C(F)(F)C(F)(F)F | 152 mg/dL | – | – | – | – | – | 249 µU/mL
O=C(Nc1ccc(Cc2nnn(Cc3ccccc3)n2)cc1)C(F)(F)C(F)(F)C(F)(F)C(F)(F)C(F)(F)C(F)(F)C(F)(F)F | 119 mg/dL | – | – | – | – | – | 204 µU/mL
